# Experiments:
# human platelets [1] = test: Glucose uptake assay, human platelets; format: cell-based; conditions: human platelets stimulated with convulxin or thrombin; ML265 pre-treated (50 and 100 μM)
# Procedure: (§1) Glucose uptake was determined in activated versus non-activated platelets using 10 mM ^14C-2-deoxy-glucose. Washed platelets (2×10^8/mL) treated with vehicle (DMSO) or ML265 (50 and 100 μM) were incubated in 1× Tyrode buffer and stimulated with convulxin or thrombin for 10 minutes, placed on ice and then centrifuged at 4000 rpm for 5 minutes. The pellets were washed with cold 1×PBS and solubilized in 1N NAOH. Radioactive counts were determined using a Perkin Elmer TriCarb 2800TR liquid scintillation counter.
# mouse platelets = test: Glucose uptake assay, mouse platelets; format: cell-based; conditions: mouse platelets stimulated with convulxin or thrombin
# Procedure: as §1
# human platelets [2] = test: Metabolomic analysis of human platelets; format: cell-based
# Procedure: Human washed platelets (3×10^8 cells in 300 μl) were treated with ML265 (100 μM) or DMSO for 10 mins and stimulated by convulxin for 10 minutes. Cells were then fixed by adding 80% methanol and sent to Metabolon Inc. (Morrisville, NC, USA) for metabolomic analysis. Briefly, samples were homogenized and subjected to methanol extraction then split into aliquots for analysis by ultra-high-performance liquid chromatography/mass spectrometry (UHPLC/MS) in the positive (two methods) and negative (two methods) mode. Metabolites were then identified by automated comparison of ion features to a reference library of chemical standards followed by visual inspection for quality control as previously described (Dehaven et al., 2010). Metaboanalyst 4.0 feature PatternHunter was used for finding the metabolites showing correlation (≥0.5) with specific trends (Xia et al., 2009). The metabolites obtained after PatternHunter analysis have been represented as a heatmap. Furthermore, to understand the functional role of the changes in concentration of these metabolites, the pathway analysis was performed using Metaboanalyst 4.0. The Global Ancova and Relative-betweenness Centrality topological measures were used to identify the highly impacted pathways with KEGG human metabolic library as the reference. The False Discovery Rate corrected pathway terms with P≤0.05 were considered significant.
# murine platelets [3] = test: P-selectin expression (α-granule secretion), mouse platelets; format: cell-based; conditions: stimulus-activated mouse platelets pretreated with ML265
# Procedure: Platelets (1×10^8 cells in 100 μl) were pre-incubated for 10 min either in presence or absence of ML265 (50 and 100 μM) then stimulated by convulxin or TRAP without stirring. Following this, platelets were labeled with PE-labeled anti-CD61 antibody and FITC conjugated anti-CD62P antibody. The platelet samples were incubated for 30 min in the dark at room temperature and analyzed on the flow cytometer (FACS Calibur, Becton Dickinson). An amorphous region (gate) was drawn to differentiate the platelets from the noise and multi-platelet particles. After compensation for FITC and PE, CD61-positive 10,000 events were collected for each sample.
# murine platelets [4] = test: ATP secretion from dense granules, mouse platelets; format: cell-based; conditions: stimulus-activated mouse platelets pretreated with ML265
# Procedure: (§2) Platelet rich plasma (PRP) or washed platelets (2×10^8/ml) treated with vehicle (DMSO) or ML265 (50 and 100 μM) were stirred (1200 rpm) at 37° C. for 2 min in a whole blood/optical lumi-aggregometer (Chrono-log; model 700-2) before the addition of agonists (convulxin, collagen, thrombin, PAR4, TRAP (PAR1 agonist) or adenosine diphosphate [ADP]). Aggregation was measured as percent change in light transmission, where 100% refers to transmittance through the blank sample (PRP/Buffer). Platelet dense granule secretion was determined by measuring the release of ATP using luciferin-luciferase reagent. To examine the effect of ML265 on ATP secretion, washed platelets were pretreated with vehicle (DMSO) or ML265 (50 and 100 μM) for 10 minutes before stimulation with various agonists. ATP release was performed in a lumi-aggregometer (Chrono-log; model 700-2) at 37° C.
# human platelets [5] = test: Clot retraction, human platelet-rich plasma; format: cell-based; conditions: thrombin stimulation, ML265 50 and 100 μM, dose-dependent
# Procedure: To measure thrombin-stimulated fibrin clot retraction PRP was treated with ML265 (50 and 100 μM) or vehicle control (DMSO) for 10 minutes. Tyrode buffer was added to test tubes, along with red blood cells, to allow visualization of the clot. This was followed by the addition of PRP. Clot formation was initiated by adding thrombin (final concentration 0.25 U/ml) to the test tubes. Photographs were taken every 15 minutes and the assay was terminated after 60 minutes at which time the clot in the vehicle-treated samples were seen to have retracted completely. Clot area was analyzed using Image J software from NIH (Bethesda, MD, USA).
# [6] = tested on: platelets from obese mice; test: Platelet aggregation, platelets from obese mice; format: cell-based, mouse; conditions: collagen (1 μg/mL) and thrombin (0.02 U/mL)
# Description: (§3) FIGS. 16A-16D. ML265 inhibits platelet aggregation and arterial thrombosis in pre-existing comorbid condition of obesity. Wild-type (C57BL6/J) mice fed a chow and high-fat diet (Cat #TD.06414, Envigo, 60% Kcal from fat) for 4 months. (A) Blood glucose levels (B) Blood glucose levels during the insulin tolerance test. Statistics (A & B): Two-way ANOVA with Tukey's multiple comparisons test (*P<0.05, **P<0.01, ***P<0.001, ****P<0.0001; n=10 mice/group). (C) Platelet rich plasma or washed platelets from obese mice were pretreated with vehicle or ML265 and stimulated with agonists including collagen (1 μg/mL) and thrombin (0.02 U/mL). The results are represented as percent change light transmission after subtracting the blank (platelet poor plasma/Tyrode's buffer). […]
# as §2, with “To examine the effect of ML265 on ATP secretion, washed platelets were pretreated with vehicle (DMSO) or ML265 (50 and 100 μM) for 10 minutes before stimulation with various agonists. ATP release was performed in a lumi-aggregometer (Chrono-log; model 700-2) at 37° C.” left out
# [7] = tested on: male obese mice (fed a high-fat diet for 4 months); test: FeCl3-injury induced carotid artery thrombosis in obese mice; format: in vivo, mouse; conditions: 5.0% FeCl3 injury, infused with ML265
# Description: as §3
# Thrombus formation in the carotid artery after the FeCl3 injury was assessed by intravital microscopy. […] Whatman paper (0.5×1.5 mm) saturated with ferric chloride (5%) solution was applied topically for 1.5 minutes for male and 2 mins for female mice, and thrombus formation in the injured carotid vessel was monitored in real time using a Nikon upright microscope (Plan Fluor 4×/0.2 objective), and thrombus growth overtime was recorded using a high-speed electron-multiplying camera for 40 minutes or until occlusion occurred. […] Videos were evaluated off-line using a Nikon computer-assisted image analysis program.
# [8] = ML265 100 μM, convulxin-stimulated human platelets
structure (smiles),measurement,setting,value
"Cn1c2cc([S+](C)[O-])sc2c2cnn(Cc3cccc(N)c3)c(=O)c21 (stereo not shown) [ML265, 6-[(3-aminophenyl)methyl]-4,6-dihydro-4-methyl-2-(methylsulfinyl)-5H-thieno[2′,3′:4,5]pyrrolo[2,3-d]pyridazine-5-one]",glucose uptake,human platelets [1],significantly decreased
same,glucose uptake,mouse platelets,reduced
same,levels of arachidonic acid and 12-HETE,human platelets [2]; [8],altered
same,"metabolites in the glycolytic pathway, including glucose uptake and lactate production",human platelets [2]; [8],altered
same,level of free fatty acids and palmitate,"human platelets [2]; ML265 100 μM, human platelets",altered
same,palmitate,human platelets [2]; ML265 pre-treated activated human platelets compared to control,downregulated
same,arachidonate level,"human platelets [2]; convulxin-stimulated human platelets pre-treated with ML265, vs convulxin alone",further decrease
same,glycerophospholipid metabolism,human platelets [2]; pre-treatment of human platelets with ML265,downregulated
same,α-granule secretion (P-selectin exposure),murine platelets [3],significant decrease
same,dense-granule secretion (ATP release),murine platelets [4],significant decrease
same,clot retraction,human platelets [5],significantly inhibited
same,platelet aggregation in pre-existing comorbid condition of obesity,[6],inhibited
same,arterial thrombosis in pre-existing comorbid condition of obesity,[7],inhibited
